# ChEMBL document CHEMBL1134744, “Discovery and parallel synthesis of a new class of cathepsin K inhibitors” (Bioorg Med Chem Lett, 2001)
# Molecular target: T1, Cathepsin K (Homo sapiens, UniProt P43235)
# T1 sequence (P43235 whole entry): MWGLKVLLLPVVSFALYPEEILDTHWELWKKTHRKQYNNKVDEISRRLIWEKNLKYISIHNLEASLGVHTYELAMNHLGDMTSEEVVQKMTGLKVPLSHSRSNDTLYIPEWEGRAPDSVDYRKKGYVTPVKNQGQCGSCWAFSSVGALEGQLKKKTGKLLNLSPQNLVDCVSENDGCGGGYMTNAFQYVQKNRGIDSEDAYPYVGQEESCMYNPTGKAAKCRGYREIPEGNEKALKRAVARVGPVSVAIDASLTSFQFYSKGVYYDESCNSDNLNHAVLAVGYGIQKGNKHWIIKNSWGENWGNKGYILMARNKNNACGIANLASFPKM
# Test: Inhibitory activity against Cathepsin K
# Settings: not given
Ki,IC50,SMILES
2 nM,–,CC(C)C[C@H](NC(=O)OCc1ccccc1)C(=O)NC1CN(C(=O)[C@H](CC(C)C)NC(=O)OCc2ccccc2)CC1=O (stereo not given in full)
–,780 nM,CC(C)[C@@H](/C=C/c1ccccc1)NC(=O)[C@@H]1CCCCN1CC(=O)c1ccccc1

# Molecular target: T1, Cathepsin K
# Test: (§1) Inhibitory activity against cathepsin K
# Settings: not given
IC50,Ki,SMILES
410 nM,–,CC[C@H](C)[C@@H](/C=C/c1ccccc1)NC(=O)[C@@H]1CCCCN1CC(=O)c1ccc(OC)cc1
230 nM,–,CC[C@H](C)[C@@H](/C=C/c1ccccc1)NC(=O)[C@@H]1CCCCN1CC(=O)c1ccccc1
280 nM,–,CC[C@H](C)[C@@H](/C=C/c1ccccc1)NC(=O)[C@@H]1CCCCN1CC(=O)c1ccc(Cl)cc1
590 nM,–,CC[C@H](C)[C@@H](/C=C/c1ccccc1C)NC(=O)[C@@H]1CCCCN1CC(=O)c1ccccc1
740 nM,–,CC[C@H](C)[C@@H](/C=C/c1ccc(C)cc1)NC(=O)[C@@H]1CCCCN1CC(=O)c1ccccc1
1400 nM,–,CC[C@H](C)[C@@H](/C=C/c1ccc(Cl)cc1)NC(=O)[C@@H]1CCCCN1CC(=O)c1ccccc1

# Continued, molecule first:
SMILES,IC50,Ki
CC[C@H](C)[C@@H](/C=C/c1ccccc1)NC(=O)[C@@H]1CCCCN1CC(=O)c1ccc2c(c1)OCO2,590 nM,–
COc1cc(C(=O)CN2CCCC[C@H]2C(=O)N[C@H](/C=C/c2ccccc2)CC(C)C)cc(OC)c1OC,1500 nM,–
CC[C@H](C)[C@@H](/C=C/c1ccccc1)NC(=O)[C@@H]1CCCCN1CC(=O)c1cc(OC)c(OC)c(OC)c1,1200 nM,790 nM
CC[C@H](C)[C@@H](/C=C/c1ccccc1)NC(=O)[C@@H]1CCCCN1CC(=O)c1c(OC)cccc1OC,700 nM,–
CC(C)C[C@@H](/C=C/c1ccccc1)NC(=O)[C@@H]1CCCCN1CC(=O)c1ccccc1,840 nM,–

# Molecular target: T2, Cathepsin K (Homo sapiens) (UniProt P43235)
# T2 sequence (whole entry): T1 sequence (P43235 whole entry)
# Test: as §1
# Parameters: concentration or dose not given beside the values
# Settings: concentration not given here
row,inhibition,SMILES
1,26%,CC[C@H](C)[C@@H](/C=C/c1ccccn1)NC(=O)[C@@H]1CCCCN1CC(=O)c1ccccc1
2,8%,CC[C@H](C)[C@@H](/C=C/c1ccncc1)NC(=O)[C@@H]1CCCCN1CC(=O)c1ccccc1
3,11%,CC[C@H](C)[C@@H](/C=C/c1ccccc1)NC(=O)[C@@H]1CCCCN1CC(=O)c1cccc([N+](=O)[O-])c1
4,15%,CC[C@H](C)[C@@H](/C=C/c1ccccc1)NC(=O)[C@@H]1CCCN1CC(=O)c1ccccc1
5,16%,CC[C@H](C)[C@@H](/C=C/c1ccccc1)NC(=O)[C@@H]1CCCCN1CC(=O)c1ccc(C#N)cc1

# More lines, now with the values behind:
row,SMILES,inhibition
1,CC[C@H](C)[C@@H](/C=C/c1ccccc1)NC(=O)[C@@H]1CCCCN1CC(=O)c1ccc(NC(C)=O)cc1,42%
2,O=C(CN1CCCC[C@H]1C(=O)Nc1ccc2oc3ccccc3c2c1)c1ccccc1,< 1%
3,O=C(CN1CCCC[C@H]1C(=O)Nc1cccc(-c2ccccc2)c1)c1ccccc1,2%
4,CC[C@H](C)[C@H](NC(=O)[C@@H]1CCCCN1CC(=O)c1ccccc1)C(=O)Nc1ccccc1,8%
5,CC[C@H](C)[C@@H](/C=C/c1ccccc1)NC(=O)[C@@H]1C=CCN1CC(=O)c1ccccc1,43%
6,CCC(=O)CN1CCCC[C@H]1C(=O)N[C@H](/C=C/c1ccccc1)[C@@H](C)CC,22%
7,CC[C@H](C)[C@@H](/C=C/c1ccccc1)NC(=O)[C@@H]1CCCCN1CC(C)=O,3%
8,CC[C@H](C)[C@@H](/C=C/c1ccccc1)NC(=O)[C@@H]1CCCCN1CC(=O)c1ccc([N+](=O)[O-])cc1,28%
9,COc1cc(C(=O)CN2CCCC[C@H]2C(=O)N[C@H](/C=C/c2ccccc2)Cc2ccccc2)cc(OC)c1OC,20%
10,CC[C@H](C)[C@@H](/C=C/c1ccccc1)NC(=O)[C@@H]1CCCCN1CC(O)c1cc(OC)c(OC)c(OC)c1 (stereo not given in full),8%
11,CC[C@H](C)[C@@H](/C=C/c1ccccc1)NC(=O)[C@@H]1Cc2ccccc2CN1CC(=O)c1ccccc1,29%
